# Laboratory results taken from patent US9365597B2, “Mitochondria-targeted inhibitors of cytochrome c peroxidase for protection from apoptosis” (Brock University, priority 2011, dated 2016).
# Experiments:
# [1] = system: mouse lung endothelial cells; experiment: Rotenone-induced apoptosis in mouse lung endothelial cells (PS externalization); assay type: cell-based; details: 2 μM rotenone, TPP-IOA 2.5, 5 μM, 48 h
# Experimental: Mouse embryonic cells (courtesy of Dr X. Wang, University of Texas, Dallas) were cultured in Dulbecco's Modified Eagle Medium (DMEM) supplemented with 15% fetal bovine serum (FBS), 25 mM Hepes, 50 mg per liter uridine, 110 mg per liter pyruvate, 2 mM glutamine, 1× nonessential amino acids, 50 μM β-mercaptoethanol, 0.5×10^6 Upper liter mouse leukaemia inhibitory factor, 100 Upper liter penicillin, and 100 mg per liter streptomycin in a humidified atmosphere of 5% CO2, 95% air at 37° C. Mouse lung endothelial cells were obtained as previously described^29. Briefly, lungs were flushed with Hank's balanced salt solution (HBSS) containing 10 U ml^−1 heparin, then homogenized and digested in type I collagenase using a gentle MACs dissociator (Miltenyi). […] At approximately passage 2, cells were incubated with fluorescently labelled diacetylated low-density lipoprotein (LDL) followed by fluorescence-activated cell sorting (FACS) for further purification. The enriched PECAM and diacetylated LDL population was sub-cultured on a collagen/gelatin matrix in 2% O2, 5% CO2, 93% nitrogen in a Coy Hypoxic Glove Box/Chamber in Opti-MEM (Gibco), 10% FBS, 2 mM glutamine, 0.2% retinal-derived growth factor (Vec Technologies), 10 U ml^−1 heparin, 0.1 mM non-essential amino acid supplement (Gibco) and 55 μM β-mercaptoethanol (Counted as passage 3). […]
# [2] = system: SH-SY5Y cells; experiment: Oxygen-glucose deprivation (OGD) of SH-SY5Y cells, viability by WST-1 assay; assay type: cell-based, human; details: for fold change in viability compared to control cells: 24 hours of recovery after 8 hour OGD, mean±SEM
# Experimental: SH-SY5Y cells were harvested from 100 mm diameter culture plates once 70-80% confluence was reached, and were then seeded on 96-well plates at a density of 3.0×10^4 cells per well in normal growth media. The cells were then incubated overnight (approximately 16 hours) under normal growth conditions to allow for attachment to plates. During this time, DMEM (supplemented with 25 mM HEPES, 4 mM L-glutamine, and 584 mg/L […]) with no glucose or serum to be used for OGD was incubated on a culture plate in the 3% oxygen, 5% carbon dioxide, 37° C. incubator to reduce the oxygen levels within the media. In the following morning, this plate of media was placed inside of a custom-built anoxic chamber that was continuously pumped with 95% nitrogen-5% carbon dioxide gas mixture from Praxair Canada (St. Catharines, ON, Canada) to further reduce/eliminate the amount of oxygen present in the media. 0.2% oxygen level within the chamber was reached within approximately 10 minutes, and the plate of media was incubated for 30 minutes under these conditions. After this period, the growth media on the 96-well plates of SH-SY5Y cells was removed, and carefully replaced with the de-oxygenated DMEM containing no glucose or serum. The plates of cells were then incubated in the anoxia chamber at 0.2% oxygen for 8 hours, continuously pumped with the 95% nitrogen-5% carbon dioxide gas mixture. An oxygen sensor was kept inside of the chamber, and the 0.2% oxygen level was monitored and maintained by a Roxy-1 universal regulator/controller (Sable Systems Int., Las Vegas, Nev., USA). Throughout the duration of the media de-oxygenation and OGD, the anoxic chamber was kept inside of a 37° C. […]
# After the 8 hour period of OGD, the glucose/serum-free DMEM was carefully removed from the wells, and replaced with normal growth media containing TPP-IOA. The cells were incubated at their normal growth conditions, and viability was assessed after 24 and 48 hours of recovery with the use of the WST-1 cell proliferation assay.
# For measurements, premixed WST-1 cell proliferation reagent was added to the wells of cells (ratio of 1:10 with growth media) cultured on 96-well flat bottomed plates. […] The plate was then shaken thoroughly for 1 minute on a plate shaker, and then absorbance at 450 nm, with a reference wavelength of 650 nm, was measured using a microplate reader (BioTek, Winooski, Vt., USA).
# For data analysis, the background control and reference wavelength absorbance readings were subtracted from the 450 nm reading for each sample. The average absorbance reading for the 0 μM TPP-IOA treatment was then set equal to 1, and all sample readings were divided by the mean absorbance of the 0 μM TPP-IOA treatment to obtain a measure of fold change in viability compared to the control.
# [3] = Hydrolysis of TPP-IOA by cytosol and mitochondrial fractions of mouse embryonic cells (HPLC); assay type: in vitro ADME
# Experimental: Incubations were carried out in 0.1 M phosphate buffer (pH 7.0) for 25 min at 37° C.; and reaction was stopped with CH3CN denatured proteins were centrifuged, and the supernatant was subjected to HPLC analysis. The volume of samples was 1 ml.
# To test this, assessments of esterase activity of mitochondria and cytosolic fractions isolated from mouse embryonic cells were performed based on HPLC measurements of TPP-IOA (FIG. 4). […] Thus, both TPP-IOA and its de-esterifed form, IOA, could be present in mitochondria of mouse embryonic cells.
compound,measurement,setting,value
CCCCCCC(C/C=C\CCCCCCCC(=O)OCCC[P+](c1ccccc1)(c1ccccc1)c1ccccc1)n1ccnc1.[Br-] (stereo not shown) [TPP-IOA],inhibition of rotenone-induced apoptosis,[1],effectively inhibited apoptosis
same,fold change in viability compared to control cells,"[2]; 2.5 μM, p=0.017",1.192±0.058 fold
same,fold change in viability compared to control cells,"[2]; 5 μM, p=0.0094",1.356±0.074 fold
same,fold change in viability compared to control cells,"[2]; 10 μM, non-significant p=0.0955",1.179±0.038 fold
same,viability after 48 hours of incubation,[2]; 48 hours of recovery after 8 hour OGD,no significant improvements in viability
same,hydrolysis rate in mitochondria,"[3]; 1 mg protein/ml, pH 7.0, 37° C.",comparable to that in the cytosolic fraction
same,hydrolysis of the ester bond by endogenous esterases,[3]; mitochondria and cytosol of mouse embryonic cells,hydrolysis of TPP-IOA takes place in both mitochondria and the cytosol
